Data taken from patent US10894794B1, “Substituted [1,2,4]triazolo[4,3-a]pyrazines as antidiabetics” (King Abdulaziz University, priority 2019, dated 2021).
Marks after values point to notes of the source that are not given here.

Experiments:
[1] = test system: overnight fasted diabetic mice; assay: OGTT after multiple doses (6 consecutive days); type: in vivo; conditions: for AUC in OGTT, % change from diabetic control / AUC in OGTT, Δ from diabetic control / Relative potency to sitagliptin (OGTT AUC) / AUC in OGTT, X (arithmetic mean): 50 mg/kg oral for six days; for AUC in OGTT, X (arithmetic mean): 2 h before glucose loading, AUC 0-120 min; for relative potency in OGTT compared with sitagliptin (in words): 6 consecutive days, 50 mg/kg
Description: The tested compounds were given daily by oral gavage for 6 consecutive days. On day 6, the overnight fasted diabetic mice were pretreated with the 6th oral dose of the tested compounds. Then an oral glucose was loaded (2 g/kg/10 ml b.w.) 2 h after drug treatment. Blood glucose levels were determined using the Accu-check Go® (Roche Diagnostics, Michigan, USA). Samples were collected just before drug administration (Fasting Blood glucose), then 2 h after drug treatment and before glucose administration. Sample collection was continued at 20, 40, 60 and 120 min intervals after glucose loading.
• b. Group 1: Animals of this group are 14 h overnight-fasted normoglycemic mice received the vehicle (1% CMC-Na) at a dosing volume of 10 ml/kg/day for six consecutive days. • c. Group 2: Overnight-fasted diabetic mice received the vehicle (1% CMC-Na) at a dosing volume of 10 ml/kg/day for six consecutive days and served as a negative control. • d. Group 3: Overnight-fasted diabetic mice received sitagliptin at a dose of 50 mg/kg/day for six consecutive days and served as positive control. • e. Groups 4-17: Animals in these groups were overnight-fasted diabetic mice and received the tested compounds 128, 129, 130, 131, at a dose of 50 mg/kg/day for six consecutive days (volume of 10 ml/kg). Effect on Blood Glucose Level after Introduction of Food for One Hour (≈Meal Tolerance Test) Rational of the Test

DPP-IV enzyme = DPP-IV enzyme (Homo sapiens (Human), UniProt P27487); assay: DPP-IV inhibition assay (Biovision kit, fluorescence); type: biochemical; conditions: read-out: IC50 (DPP4 inhibition)
Sequence of DPP-IV enzyme (P27487 whole entry, species assumed): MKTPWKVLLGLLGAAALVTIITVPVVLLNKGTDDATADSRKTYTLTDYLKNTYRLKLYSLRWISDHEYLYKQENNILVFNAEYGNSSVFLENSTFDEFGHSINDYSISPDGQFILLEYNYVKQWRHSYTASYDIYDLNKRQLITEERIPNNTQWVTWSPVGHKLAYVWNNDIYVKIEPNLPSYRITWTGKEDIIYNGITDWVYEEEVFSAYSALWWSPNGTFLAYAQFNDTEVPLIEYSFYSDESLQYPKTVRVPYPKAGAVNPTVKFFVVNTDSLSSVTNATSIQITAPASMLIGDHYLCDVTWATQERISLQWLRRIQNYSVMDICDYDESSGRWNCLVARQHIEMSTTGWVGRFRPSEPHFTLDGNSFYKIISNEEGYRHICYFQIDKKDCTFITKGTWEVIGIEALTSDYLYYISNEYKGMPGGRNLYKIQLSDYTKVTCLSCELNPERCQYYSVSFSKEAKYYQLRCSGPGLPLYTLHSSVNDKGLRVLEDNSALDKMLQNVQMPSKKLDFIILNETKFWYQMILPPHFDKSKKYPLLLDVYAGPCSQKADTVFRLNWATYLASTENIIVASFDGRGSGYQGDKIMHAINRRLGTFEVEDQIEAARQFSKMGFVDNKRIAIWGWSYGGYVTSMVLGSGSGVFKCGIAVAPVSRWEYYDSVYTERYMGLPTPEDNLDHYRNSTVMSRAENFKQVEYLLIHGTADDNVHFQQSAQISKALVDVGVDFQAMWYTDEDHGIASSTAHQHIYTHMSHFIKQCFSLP
Description: Sitagliptin phosphate monohydrate and the different tested compounds were dissolved in dimethyl sulphoxide (DMSO) and diluted with tris buffer (pH 8.0, 50 mM) to achieve the required concentrations. DPP-IV inhibition assay was conducted using a kit purchased from Biovision (Milpitas, Calif., USA). Briefly, DPP-IV enzyme was diluted with tris buffer and pipetted 50 μl into glass mini-cells. Subsequently the 25 μl of tris buffer, sitagliptin phosphate monohydrate or the tested compounds was added and incubated at 37° C. for 20 min protected from light. Finally, a volume of 25 μl of DPP-IV substrate was added into each tube. The fluorescence generated from hydrolysis of the substrate was read at Ex/Em=360/460 nm using Modulus® single tube multimode reader (Promega, USA). Baseline fluorescence was recorded before incubation (R1) and 20 min after incubation (R2). Percentage inhibition was calculated according to the following equation: […] where, ΔRFU=R2−R1 and EC is the enzyme control (enzyme solution without inhibitor) which is considered 100% activity.
The standard DPP-IV inhibitor drug sitagliptin was employed as positive control. […] Sigmoidal dose-response curves for DPP-IV % inhibition versus log concentrations were plotted using Graphpad prism software, version 5.00 (GraphPad Software, Inc. La Jolla, Calif., USA). The IC50 value corresponds to the concentration of sample needed to inhibit DPP-IV by 50%.

[2] = test system: 14 h overnight fasted diabetic mice; assay: Oral glucose tolerance test (OGTT) after single dose; type: in vivo; conditions: for glucose-lowering activity in OGTT compared with sitagliptin (in words): single dose 50 mg/kg; for Relative potency to sitagliptin (OGTT AUC) / AUC in OGTT, % change from diabetic control / AUC in OGTT, Δ from diabetic control / AUC in OGTT, X (arithmetic mean): single oral dose 50 mg/kg; for AUC in OGTT, % change from diabetic control / AUC in OGTT, Δ from diabetic control / AUC in OGTT, X (arithmetic mean): 2 h before glucose loading; for AUC in OGTT, X (arithmetic mean): AUC 0-120 min
Description: The oral glucose tolerance test was done in 14 h overnight fasted diabetic mice that were pretreated with a single oral dose of the tested compounds. Each of the tested agents was suspended in sodium carboxymethyl cellulose (CMC-Na) (1% in distilled water) and the dosing volume was adjusted to 10 ml/kg body weight per mouse. Then an oral glucose load was administered (2 g/kg) 2 h after drug treatment. Blood glucose levels were determined using the Accu-check Go® (Roche Diagnostics, Michigan, USA). Blood samples were collected just before drug administration (Fasting Blood glucose), then 2 h after drug treatment and before glucose loading. Blood samples collection was continued at 20, 40, 60 and 120 min intervals after glucose loading.
Animals were distributed between 17 groups (n=6) as follow: • a. Group 1: Animals were 14 h overnight-fasted normoglycemic mice and vehicle-treated (1% CMC-Na) at a dose of 10 ml/kg. • b. Group 2: Overnight fasted diabetic mice received the vehicle (1% CMC-Na) at a dosing volume of 10 ml/kg and served as a negative control. • c. Group 3: Overnight fasted diabetic mice received sitagliptin at a dose of 50 mg/kg in 1% CMC (in a volume of 10 ml/kg) and served as positive control. • a. Groups 4-17: Animals of these groups were overnight fasted diabetic mice received the tested compounds 128, 129, 130, 131, at a dose of 50 mg/kg in 1% CMC (volume of 10 ml/kg).

STZ-diabetic mice = assay: Fasting blood glucose of diabetic mice during six days of treatment; type: in vivo; conditions: for activity in controlling the rise of blood glucose levels in streptozotocin diabetic animals (in words) / control of fasting blood sugar compared with sitagliptin and the other compounds (in words): 50 mg/kg/day; for activity in controlling the rise of blood glucose levels in streptozotocin diabetic animals (in words): 6-day interval; for control of fasting blood sugar compared with sitagliptin and the other compounds (in words): 6 days; for Blood glucose level, fasting: 50 mg/kg/day oral, diabetic mice, mean ± SEM
Excerpt: Our objective was to test the efficacy of the synthesized compounds for their potential to reduce blood glucose in STZ-diabetic mice. The synthesized compounds Nos. 128, 129, 130, 131,140, 142 were expected to act through the inhibition of the DPP-IV enzyme, which is responsible for the degradation of the entero-peptide GLP-I. In turn, GLP-I increases insulin and decreases glucagon release from the pancreatic islets (β and α-cells respectively). So this part of the project was designed to study the effect of the synthesized gliptin simulated compounds on blood glucose levels and their efficacy to increase glucose utilization in diabetic mice through: • a. The effect of the tested compounds in a dose of 50 mg/kg/day on fasting blood glucose blood levels of diabetic mice during six days of treatment. • b. Oral glucose tolerance test (OGTT) through oral glucose loading, 2 h after treatment with single oral dose (50 mg/kg) of the tested compounds in 14 h overnight fasted mice. • c. OGTT through oral glucose loading, 2 h after treatment with the 6th oral dose (50 mg/kg) of the tested compounds in 14 h overnight fasted mice. • d. The effect of the pretreatment with the tested compounds at an oral dose of 50 mg/kg on blood glucose levels, 3 h before and 3 h after meal feeding (feeding for one hour only, then food was removed immediately) in 14 h overnight-fasted diabetic mice.
Blood samples were collected from the tail vein and the blood glucose level was determined. Curves of blood glucose levels (mg/dL) versus the time intervals (min) were constructed and the area under the curves (AUCs) were calculated by the method of calculation embedded in GraphPad Prism® v. 5.0 (GraphPad Software, San Diego, Calif., USA). AUCs of the curves of the different groups were compared and tested for significance against control groups.
All data are presented as means±SEM. Statistical significance was evaluated by analysis of variance (ANOVA) followed by Tukey-Kramer's post hoc test for multiple comparisons. The “t” of the paired data was used to test the significance of the values of the fasting blood glucose compared to the values before treatment. Statistical significance was accepted at a level of p<0.05.

Structure (SMILES)	AUC in OGTT, % change from diabetic control [1] [%]	AUC in OGTT, Δ from diabetic control [1] [mg·min/dL]	Relative potency to sitagliptin (OGTT AUC) [1]	AUC in OGTT, X (arithmetic mean) [1]	IC50 (DPP-IV enzyme) [nM]	glucose-lowering activity in OGTT compared with sitagliptin (in words) [2]	Relative potency to sitagliptin (OGTT AUC) [2]	AUC in OGTT, % change from diabetic control [2] [%]	AUC in OGTT, Δ from diabetic control [2] [mg·min/dL]	AUC in OGTT, X (arithmetic mean) [2]	activity in controlling the rise of blood glucose levels in streptozotocin diabetic animals (in words) (STZ-diabetic mice)	control of fasting blood sugar compared with sitagliptin and the other compounds (in words) (STZ-diabetic mice)	Blood glucose level, fasting (STZ-diabetic mice; Day 1) [mg/dL]	Blood glucose level, fasting (STZ-diabetic mice; Day 4) [mg/dL]	Blood glucose level, fasting (STZ-diabetic mice; Day 5) [mg/dL]	relative potency in OGTT compared with sitagliptin (in words) [1]	control of fasting blood sugar compared with sitagliptin and the other compounds (in words) (STZ-diabetic mice; listed as 130)
N#Cc1cccc(NC(=O)CN2CCn3c(nnc3C(F)(F)F)C2)c1 [GLP-142]	−19.4	-10216	0.513	42439* mg · dL^−1 · min	0.18	less potent than sitagliptin	0.76	−18.51	-9452	41613 mg·min/dL	significant activity	comparable to that of sitagliptin	230.0 ± 13.769	188.8 ± 25.784	205.4 ± 39.315	–	–
O=C(CN1CCn2c(nnc2C(F)(F)F)C1)NC1CCCCC1 [GLP-140]	−38.32	-20180	1.01	32475* mg · dL^−1 · min	1.84	less potent than sitagliptin	0.69	−16.89	-8626	42439 mg·min/dL	significant activity	comparable to that of sitagliptin	210.0 ± 12.345	–	–	comparable or higher relative potency than sitagliptin	–
C[C@H](NC(=O)c1cccc(Cl)c1)C(=O)N1CCn2c(nnc2C(F)(F)F)C1 [GLP-130]	−34.11	-17983	0.90	34672* mg · dL^−1 · min	0.21	higher glucose-lowering activity than sitagliptin	1.32	−32.01	-16345	34720* mg · dL^−1 · min	significant activity	most consistent and extended activities	–	–	–	comparable or higher relative potency than sitagliptin	comparable to that of sitagliptin
